Laboratory results: patent publication US5843941A, “Ras farnesyl transferase inhibitors” (Genentech, Inc., priority 1994, dated 1998)
Entries after “also recorded” stand apart in the source; their conditions may differ.

Legend:
[1] = system: H-ras(Val12)-transformed rat-1 fibroblasts (rat 2.2 cells); assay: Changes in morphology of H-ras-transformed cells; assay type: cell-based; details: 5 days
Method: Compound 27A (denoted as BG269A in the figure) and compound 27B (denoted as BG269B in the figure) were added at 250 μM to test whether these compounds would induce reversion to a more normal phenotype as had been previously shown with microinjection of anti-Ras antibodies (see Feramisco, J. R. et al Nature 314, 639 (1985)). The H-ras transformed cells, denoted as rat 2.2 cells, were generated by transfection of rat-1 fibroblasts as described (see Seeburg, P. H., Colby, W. W., Capon, D. J., Goeddel, D. V., and Levinson, A. D. Nature 312,71 (1984)). Cells that overgrew the monolayer were extracted and plated onto agar to obtain a cell line displaying a fully transformed phenotype. Untransformed rat-1 fibroblasts and src-transformed rat-1 fibroblasts were also treated. The src-transformed cells were generated by co-transfection of rat-1 fibroblasts with pSV3.Neo.src, a vector containing the gene for src as well as the gene that confers G418 resistance, both under control of SV40 early promoters. G418-resistant cell clones that diplayed a transformed phenotype were used to generate the cell line. On day 0, cells were plated in monolayer culture at 3×10^3 cells per well (24-well plates) in 1 ml DMEM supplemented with 10% FCS, 100 U/ml penicillin, 10 μg/ml streptomycin, 2% DMSO, and 0.5 mM DTT with and without 200 μM inhibitor. On day 3, the cells were refed with the same medium. On day 5, the cells were photographed under contrast at a magnification of 100X. […] This change in morphology is remarkably similar to that seen following injection of anti-ras antibodies into ras-transformed cells (see Feramisco, J. R. et al Nature 314, 639 (1985)). Rat-1 fibroblasts transformed with the src oncogene also grew in a multilayered pattern (FIG. 6C), but this was not affected by compound 27A or compound 27B (FIG. 6D).

[2] = system: src-transformed rat-1 fibroblasts; assay: Changes in morphology of src-transformed cells; assay type: cell-based; details: FIG. 6C/6D
Method: Compound 27A (denoted as BG269A in the figure) and compound 27B (denoted as BG269B in the figure) were added at 250 μM to test whether these compounds would induce reversion to a more normal phenotype as had been previously shown with microinjection of anti-Ras antibodies (see Feramisco, J. R. et al Nature 314, 639 (1985)). The H-ras transformed cells, denoted as rat 2.2 cells, were generated by transfection of rat-1 fibroblasts as described (see Seeburg, P. H., Colby, W. W., Capon, D. J., Goeddel, D. V., and Levinson, A. D. Nature 312,71 (1984)). Cells that overgrew the monolayer were extracted and plated onto agar to obtain a cell line displaying a fully transformed phenotype. Untransformed rat-1 fibroblasts and src-transformed rat-1 fibroblasts were also treated. The src-transformed cells were generated by co-transfection of rat-1 fibroblasts with pSV3.Neo.src, a vector containing the gene for src as well as the gene that confers G418 resistance, both under control of SV40 early promoters. G418-resistant cell clones that diplayed a transformed phenotype were used to generate the cell line. On day 0, cells were plated in monolayer culture at 3×10^3 cells per well (24-well plates) in 1 ml DMEM supplemented with 10% FCS, 100 U/ml penicillin, 10 μg/ml streptomycin, 2% DMSO, and 0.5 mM DTT with and without 200 μM inhibitor. On day 3, the cells were refed with the same medium. […]

CAAX farnesyltransferase = CAAX farnesyltransferase (Rattus norvegicus, UniProt Q02293+Q04631); assay: In vitro inhibition of CAAX farnesyltransferase; assay type: biochemical; set-up: purified to homogeneity from rat brain homogenates; from tissue; host or cells: rat brain; alternatively recombinant enzyme from a baculovirus expression system; details: FIG. 1A
Chain of CAAX farnesyltransferase (Q02293 whole entry, one chain of several): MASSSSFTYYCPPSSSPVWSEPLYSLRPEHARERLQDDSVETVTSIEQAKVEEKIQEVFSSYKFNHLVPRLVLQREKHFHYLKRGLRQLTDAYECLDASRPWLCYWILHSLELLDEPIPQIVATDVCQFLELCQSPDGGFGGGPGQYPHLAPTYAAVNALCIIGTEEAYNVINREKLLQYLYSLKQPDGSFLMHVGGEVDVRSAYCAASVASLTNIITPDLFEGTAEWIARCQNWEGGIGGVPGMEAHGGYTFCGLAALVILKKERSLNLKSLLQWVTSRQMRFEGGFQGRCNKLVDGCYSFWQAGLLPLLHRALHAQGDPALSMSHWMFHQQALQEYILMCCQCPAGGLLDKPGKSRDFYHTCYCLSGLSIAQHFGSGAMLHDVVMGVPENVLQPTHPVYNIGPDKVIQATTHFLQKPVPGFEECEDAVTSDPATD
Method in brief: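 Native or recombinant (baculovirus-infected cells, Q-Sepharose purified) farnesyltransferase incubated 30 min at 37 °C. [3H]farnesyl transfer to p21H-ras measured by SDS/trichloroacetic acid precipitation, nitrocellulose filtration and scintillation counting.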

[3] = system: Ras proteins in Met18b-2 cells; assay: Incorporation of [3H]mevalonate into immunoprecipitated Ras proteins in Met18b-2 cells; assay type: cell-based, Chinese hamster
Method: In each experiment, aliquots of the Triton X-100 fraction (300 μg protein, prepared as described above) were incubated with 1 μg anti-Ras monoclonal antibody (Oncogene Sciences, Inc.) overnight at 4° C. on a rotating platform. Immune complexes were precipitated by addition of 25 μl Protein A-agarose suspension that had been pre-coated with goat anti-rat IgG (Oncogene Sciences, Inc.) according to the manufacturer's instructions. After a 30 min incubation at 4° C., the agarose beads were pelleted by centrifugation and washed 5 times with 1 ml each of wash solution (50 mM Tris-HCl, 50 mM NaCl, 0.5% (w/v) deoxycholate, 0.5% (v/v) Nonidet P-40, and 0.1% (w/v) SDS at pH 7.5). 75 μl of 1X SDS sample buffer was added and each sample heated for 5 min at 95° C. before electrophoresis as above.

HT-1080 cells = assay: Growth inhibition of human tumor line HT-1080; assay type: cell-based; details: HT-1080, fibrosarcoma, ras transformed, read-out: % growth inhib.
Method: (§1) To examine the effects of farnesyltransferase inhibition on cell growth, three cell lines (ras-transformed rat-1, src-transformed rat-1, and parental rat-1 cells) were seeded (see FIG. 7) at low density and allowed to grow for 10 days in the absence or presence of increasing concentrations of BZA-5B (compound 37). See Example 128 for description of cells. On day 0, cells were plated in monolayer culture at 2×10^3 cells per well (24-well plates) in 1 ml DMEM supplemented with 10% fetal calf serum, 100 U/ml penicillin, 100 μg/ml streptomycin, 0.5 mM DTT, 0.025% DMSO, and the indicated concentration of BZA-5B (compound 37). On days 3 and 7, cells were washed and refed with the same medium. At the time indicated in FIG. 7, cells were harvested by trypsinization and counted in a Coulter counter. Panels A, C, E show the growth rate of each cell line in the absence of inhibitor. Panels B, D, F show the inhibition of growth as a function of concentration of BZA-5B at each time point. […]
(§2) To examine the effects of farnesyltransferase inhibition on the growth of human tumor cell lines, several such lines were treated with 25 μM BZA-5B (compound 37B) using a procedure similar to that described in Example 129 above. Cells were refed with fresh media at days 3 and 6 containing the inhibitor, and were harvested and counted as described above. […]

SW-480 cells = assay: Growth inhibition of human tumor line SW-480; assay type: cell-based; details: SW480, SW-480, colon, ras transformed, read-out: % growth inhib.
Method: as §1, §2

[4] = system: HT 1080 human tumor cells in nude mouse; assay: Survival of nude mice after intraperitoneal implantation of HT 1080 human tumor cells; assay type: in vivo; details: 20 mg/kg daily
Method: Implantation of […] HT 1080 cells in the peritoneal cavity of the nude mouse allows seeding and growth of tumor cell masses within the peritoneum. […] In this experiment, fourteen nude mice were injected on day 0 with […] HT 1080 cells via intraperitoneal injection. Half the animals (seven) immediately began receiving daily treatment with Compound 37B at 20 mg/kg (formulated in approx. 0.25 ml of 1% DMSO, 20% glycerol, 10 mM NaOAc, 130 mM NaCl, pH 4.5). The other seven animals received daily injection of the above vehicle alone.

SMILES	effect on transformed phenotype (morphology) ([1]; FIG. 6A/6B)	effect on cell density ([1]; FIG. 6B)	effect on morphology of src-transformed cells [2]	IC50 (CAAX farnesyltransferase; recombinant enzyme, read-out: concentration inhibiting recombinant ras CAAX farnesyltransferase by 50%) [nM]	fold lower inhibitory concentration than tetrapeptide CVFM (CAAX farnesyltransferase; vs CVFM) [fold]	incorporation of [3H]mevalonate into immunoprecipitated ras proteins ([3]; 50 μM, FIG. 5, lanes 7-9)	minimal effective concentration ([3]; Cricetulus griseus, FIG. 5, read-out: concentration at which inhibition of incorporation into ras proteins was readily detectable) [µM]	inhibition at 25 µM (HT-1080 cells) [%]	inhibition at 25 µM (SW-480 cells) [%]	mortality / survival of mice with IP tumor ([4]; over 25 days, FIG. 8)	tumor cell masses in the peritoneum at end of treatment ([4]; dissection of all treated animals)
CSCC[C@H](NC(=O)CN1C(=O)C(N(C)C(=O)[C@@H](N)CS)N=C(c2ccccc2)c2ccccc21)C(=O)O (single isomer, unassigned) [27B]	reversed the transformed phenotype	grew to lower cell density	not affected	0.26	~200	–	–	–	–	–	–
COC(=O)[C@H](CCSC)NC(=O)CN1C(=O)C(N(C)C(=O)[C@@H](N)CS)N=C(c2ccccc2)c2ccccc21 (single isomer, unassigned) [37B]	–	–	–	–	–	abolished incorporation of [3H] mevalonate into immunoprecipitated ras proteins	10	64	45	caused a reduction in mortality over 25 days; also recorded: blocked the rapid mortality associated with IP implantation of tumor cells	all of the treated animals showed the presence of tumor cell masses in the peritoneum
